These molecules were tested against EGFR (human) (UniProt P00533). Conditions: nci-h1975.
EGFR (human), sequence (P00533 whole entry, looked up): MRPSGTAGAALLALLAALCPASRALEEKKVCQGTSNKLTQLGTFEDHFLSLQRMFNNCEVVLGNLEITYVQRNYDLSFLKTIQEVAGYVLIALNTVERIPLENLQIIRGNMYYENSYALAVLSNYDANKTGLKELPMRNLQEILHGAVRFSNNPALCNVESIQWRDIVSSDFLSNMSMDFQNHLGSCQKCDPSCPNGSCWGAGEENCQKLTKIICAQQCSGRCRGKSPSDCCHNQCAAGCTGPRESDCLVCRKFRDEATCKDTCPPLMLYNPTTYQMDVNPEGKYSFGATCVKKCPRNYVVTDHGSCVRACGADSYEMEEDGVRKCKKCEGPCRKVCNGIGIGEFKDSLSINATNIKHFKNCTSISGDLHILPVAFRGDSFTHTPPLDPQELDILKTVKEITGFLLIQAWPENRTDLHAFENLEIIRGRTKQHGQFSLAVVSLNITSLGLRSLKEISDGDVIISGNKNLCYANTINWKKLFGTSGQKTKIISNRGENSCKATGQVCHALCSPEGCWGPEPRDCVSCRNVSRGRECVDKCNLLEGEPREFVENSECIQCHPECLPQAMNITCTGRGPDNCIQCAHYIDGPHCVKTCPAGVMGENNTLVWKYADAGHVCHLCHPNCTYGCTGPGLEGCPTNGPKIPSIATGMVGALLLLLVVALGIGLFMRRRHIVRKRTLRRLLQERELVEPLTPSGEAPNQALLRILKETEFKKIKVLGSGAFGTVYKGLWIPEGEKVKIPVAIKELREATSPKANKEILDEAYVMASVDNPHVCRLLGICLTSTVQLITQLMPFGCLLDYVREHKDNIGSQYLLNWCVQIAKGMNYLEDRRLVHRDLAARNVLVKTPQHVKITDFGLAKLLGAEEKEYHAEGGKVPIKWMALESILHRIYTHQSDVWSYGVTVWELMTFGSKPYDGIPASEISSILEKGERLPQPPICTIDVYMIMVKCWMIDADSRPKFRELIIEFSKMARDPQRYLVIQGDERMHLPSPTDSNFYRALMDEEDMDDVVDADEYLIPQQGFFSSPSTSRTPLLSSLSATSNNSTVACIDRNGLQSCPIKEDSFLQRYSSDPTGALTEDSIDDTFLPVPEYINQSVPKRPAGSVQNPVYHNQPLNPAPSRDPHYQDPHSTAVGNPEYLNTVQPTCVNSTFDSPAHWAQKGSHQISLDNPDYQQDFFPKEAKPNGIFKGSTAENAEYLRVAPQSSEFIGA

Structure (SMILES) | IC50 [µM]
CC(Nc1ncnc2[nH]c(-c3ccc(O)cc3)cc12)c1ccccc1 (stereo not given) | 8

Same assay, conditions: nci-h1975, concentration not given here

Structure (SMILES) | inhibition [%]
OCCC#Cc1nc(-c2ccc(F)cc2)c(-c2ccncc2)n1CCCc1ccccc1 | < 25
Cc1ccc(NC(=O)c2ccc(CN3CCN(C)CC3)cc2)cc1Nc1nccc(-c2cccnc2)n1 | < 25
Cc1ccc(NC(=O)c2cccc(N(C)C)c2)cc1NC(=O)c1ccc(O)cc1 | < 25
COc1cc2ncnc(Nc3ccc(OCc4ccccc4)cc3)c2cc1OC | < 25
CC(C)[C@H](CO)Nc1nc(Nc2ccc(C(=O)O)c(Cl)c2)c2ncn(C(C)C)c2n1 | < 25
CC(C)(C)c1cnc(CSc2cnc(NC(=O)C3CCNCC3)s2)o1 | 63
Cc1cc(C)c(/C=C2\C(=O)Nc3ccc(Cl)cc32)[nH]1 | < 25
Cc1cc(Nc2cc(N3CCN(C)CC3)nc(Sc3ccc(NC(=O)C4CC4)cc3)n2)[nH]n1 | 34
NC(=O)Nc1sc(-c2ccc(F)cc2)cc1C(N)=O | 35
Cn1cc(C2=C(c3ccc(Cl)cc3Cl)C(=O)NC2=O)c2ccccc21 | 37
O=c1ncn2nc(Sc3ccc(F)cc3F)ccc2c1-c1c(Cl)cccc1Cl | < 25
CC(C)(C)n1nc(-c2cccc3ccccc23)c2c(N)ncnc21 | 60
O=C1NC(=O)C(c2ccccc2[N+](=O)[O-])=C1Nc1ccc(O)c(Cl)c1 | < 25
Cc1cc(Nc2ncc3cc(-c4c(Cl)cccc4Cl)c(=O)n(C)c3n2)ccc1F | 55
c1ccc(-c2n[nH]cc2-c2ccnc3ccccc23)nc1 | < 25
O=C1Nc2ccc(I)cc2/C1=C\c1cc(Br)c(O)c(Br)c1 | < 25
CC(C)(C)c1nc2c3ccc(F)cc3c3c(=O)[nH]ccc3c2[nH]1 | < 25
COc1cccc(-c2cc(=O)c3ccccc3o2)c1N | < 25
O=C(Nc1cc(C(F)(F)F)cc(C(F)(F)F)c1)c1cc(Cl)ccc1O | 76
